Values of other authors, collected in US10406114B2, “Antibiotic-loaded transdermal patch” (priority 2017, dated 2019).

System: Staphylococcus aureus

- MIC: about 8 μg/ml
SMILES: CC1=C(C(=O)O)N2C(=O)[C@@H](NC(=O)[C@H](N)c3ccccc3)[C@H]2SC1 [cephalexin]
